How the values were obtained:
Glucocorticoid receptor [1] = target: T1, Glucocorticoid receptor (Rattus norvegicus, UniProt P06536); experiment: Inhibition of dexamethasone-induced glucocorticoid receptor mediated tyrosine aminotransferase in rat hepatocytes; format: functional, cell-based, Hepatocyte
T1 sequence (P06536 whole entry): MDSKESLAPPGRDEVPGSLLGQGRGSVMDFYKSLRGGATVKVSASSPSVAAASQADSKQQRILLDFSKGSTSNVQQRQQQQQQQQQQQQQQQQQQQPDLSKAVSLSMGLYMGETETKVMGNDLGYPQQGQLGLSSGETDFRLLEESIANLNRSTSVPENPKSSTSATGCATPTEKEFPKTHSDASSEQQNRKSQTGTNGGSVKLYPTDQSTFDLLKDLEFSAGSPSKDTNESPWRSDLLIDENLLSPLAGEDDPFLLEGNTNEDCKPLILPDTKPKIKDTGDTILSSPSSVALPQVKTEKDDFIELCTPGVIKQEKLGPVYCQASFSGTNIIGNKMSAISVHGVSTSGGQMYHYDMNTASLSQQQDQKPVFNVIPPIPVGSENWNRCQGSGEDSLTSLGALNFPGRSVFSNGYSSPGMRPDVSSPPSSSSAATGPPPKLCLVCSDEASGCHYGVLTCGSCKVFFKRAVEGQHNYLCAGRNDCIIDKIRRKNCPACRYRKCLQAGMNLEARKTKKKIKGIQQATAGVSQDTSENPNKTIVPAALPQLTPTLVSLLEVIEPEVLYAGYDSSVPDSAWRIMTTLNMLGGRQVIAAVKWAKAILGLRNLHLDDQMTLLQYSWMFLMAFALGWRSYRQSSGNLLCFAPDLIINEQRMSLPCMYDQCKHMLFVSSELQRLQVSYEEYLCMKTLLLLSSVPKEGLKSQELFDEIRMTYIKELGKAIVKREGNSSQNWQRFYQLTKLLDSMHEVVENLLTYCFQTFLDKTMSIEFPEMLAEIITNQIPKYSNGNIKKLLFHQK

Glucocorticoid receptor [2] = target: T2, Glucocorticoid receptor (Homo sapiens, UniProt P04150); experiment: Inhibition of dexamethasone-induced glucocorticoid receptor mediated alkaline phosphatase activity; format: functional
T2 sequence (P04150 whole entry): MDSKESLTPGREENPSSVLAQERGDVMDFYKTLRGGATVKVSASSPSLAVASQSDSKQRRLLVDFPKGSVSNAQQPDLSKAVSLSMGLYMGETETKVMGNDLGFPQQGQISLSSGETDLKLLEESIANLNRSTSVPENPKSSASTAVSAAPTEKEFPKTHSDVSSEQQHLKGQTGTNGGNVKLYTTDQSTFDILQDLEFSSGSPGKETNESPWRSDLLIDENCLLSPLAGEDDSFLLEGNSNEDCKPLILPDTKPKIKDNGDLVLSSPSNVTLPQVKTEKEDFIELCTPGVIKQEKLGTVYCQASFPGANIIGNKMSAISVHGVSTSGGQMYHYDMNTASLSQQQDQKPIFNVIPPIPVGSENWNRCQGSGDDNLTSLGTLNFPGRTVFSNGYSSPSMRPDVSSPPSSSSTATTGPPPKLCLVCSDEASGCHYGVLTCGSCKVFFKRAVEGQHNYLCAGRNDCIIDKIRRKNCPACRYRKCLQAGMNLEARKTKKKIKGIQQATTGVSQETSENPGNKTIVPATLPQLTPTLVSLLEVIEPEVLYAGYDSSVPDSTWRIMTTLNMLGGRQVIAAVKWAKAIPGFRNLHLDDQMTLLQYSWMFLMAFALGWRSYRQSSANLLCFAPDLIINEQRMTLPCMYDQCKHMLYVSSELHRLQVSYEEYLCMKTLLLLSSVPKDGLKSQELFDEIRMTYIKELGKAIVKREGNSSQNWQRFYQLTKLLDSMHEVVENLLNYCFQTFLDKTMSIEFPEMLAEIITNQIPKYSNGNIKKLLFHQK

Progesterone receptor = target: T3, Progesterone receptor (Homo sapiens, UniProt P06401); experiment: Inhibition of human progesterone receptor
T3 sequence (P06401 whole entry): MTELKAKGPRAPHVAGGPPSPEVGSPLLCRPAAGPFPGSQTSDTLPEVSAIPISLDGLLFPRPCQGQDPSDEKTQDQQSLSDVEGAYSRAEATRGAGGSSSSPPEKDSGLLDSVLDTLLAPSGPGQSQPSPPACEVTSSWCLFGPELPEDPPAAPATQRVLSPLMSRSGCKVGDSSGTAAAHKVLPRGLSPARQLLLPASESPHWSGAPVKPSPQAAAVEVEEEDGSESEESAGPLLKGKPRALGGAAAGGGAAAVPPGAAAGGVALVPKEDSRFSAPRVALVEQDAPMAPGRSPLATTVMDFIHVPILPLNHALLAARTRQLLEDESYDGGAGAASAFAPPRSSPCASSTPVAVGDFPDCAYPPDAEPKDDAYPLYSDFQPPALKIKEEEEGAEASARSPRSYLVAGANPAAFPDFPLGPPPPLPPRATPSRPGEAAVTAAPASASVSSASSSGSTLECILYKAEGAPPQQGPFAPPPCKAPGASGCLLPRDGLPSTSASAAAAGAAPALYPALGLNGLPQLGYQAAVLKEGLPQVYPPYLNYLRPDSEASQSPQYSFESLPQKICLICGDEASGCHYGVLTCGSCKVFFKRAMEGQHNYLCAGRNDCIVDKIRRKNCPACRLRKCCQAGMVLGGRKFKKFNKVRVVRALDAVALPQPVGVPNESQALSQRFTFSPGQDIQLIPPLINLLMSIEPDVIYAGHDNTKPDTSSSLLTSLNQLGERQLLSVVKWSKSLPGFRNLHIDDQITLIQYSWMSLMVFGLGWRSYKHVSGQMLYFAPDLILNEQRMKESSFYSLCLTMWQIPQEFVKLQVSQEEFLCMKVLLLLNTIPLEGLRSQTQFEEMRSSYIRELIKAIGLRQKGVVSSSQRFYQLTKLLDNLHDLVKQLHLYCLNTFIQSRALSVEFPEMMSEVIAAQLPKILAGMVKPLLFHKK

Glucocorticoid receptor [3] = target: T2, Glucocorticoid receptor

| Structure (SMILES) | IC50 (Glucocorticoid receptor [1]) [µM] | IC50 (Glucocorticoid receptor [2]) [µM] | IC50 (Progesterone receptor) [µM] | IC50 (Glucocorticoid receptor [3]) [µM] |
| --- | --- | --- | --- | --- |
| Cc1c(NS(C)(=O)=O)cccc1N(Cc1ccc(Oc2ccccc2)cc1)Cc1ccc(F)cc1F | > 30 |  |  |  |
| CC#C[C@]1(O)CC[C@H]2[C@@H]3CCC4=CC(=O)CCC4=C3[C@@H](c3ccc(N(C)C[C@@H]4C[C@@H](O)CC(=O)O4)cc3)C[C@@]21C | 0.14 | 0.023 | 0.0038 | 0.0023 |
| Cc1c(NS(C)(=O)=O)cccc1N(Cc1ccccc1)Cc1ccc(Oc2ccc(OC[C@@H]3C[C@@H](O)CC(=O)O3)cc2)cc1 | > 30 | 0.44 |  | 0.0021 |
| CC#C[C@]1(O)CC[C@H]2[C@@H]3CCC4=CC(=O)CCC4=C3[C@@H](c3ccc(OC[C@@H](O)CC(O)CC(=O)O)cc3)C[C@@]21C (single isomer, unassigned) | 0.56 | 2.9 | 0.047 | 0.0092 |
| Cc1c(NS(C)(=O)=O)cccc1N(Cc1ccc(Oc2cccc(OC[C@@H]3C[C@@H](O)CC(=O)O3)c2)cc1)Cc1ccc(F)cc1F | > 30 | 0.67 |  | 0.025 |
| Cc1c(NS(C)(=O)=O)cccc1N(Cc1ccccc1)Cc1ccc(Oc2ccc(OC[C@@H](O)C[C@@H](O)CC(=O)O)cc2)cc1 | > 30 | 0.3 |  | 0.0021 |
| Cc1c(NS(C)(=O)=O)cccc1N(Cc1ccc(Oc2cccc(OC[C@@H](O)C[C@@H](O)CC(=O)O)c2)cc1)Cc1ccc(F)cc1F | > 30 | 0.76 |  | 0.015 |
| CC#C[C@]1(O)CC[C@H]2[C@@H]3CCC4=CC(=O)CCC4=C3[C@@H](c3ccc(N(C)C[C@@H](O)CC(=O)O)cc3)C[C@@]21C | 0.22 | 0.076 | 0.2 | 0.037 |
| CC#C[C@]1(O)CC[C@H]2[C@@H]3CCC4=CC(=O)CCC4=C3[C@@H](c3ccc(N(C)C[C@@H](O)C[C@@H](O)CC(=O)O)cc3)C[C@@]21C | 0.13 | 0.018 | 0.032 | 0.0068 |

From ChEMBL document CHEMBL1137148, “Synthesis, activity, metabolic stability, and pharmacokinetics of glucocorticoid receptor modulator-statin hybrids” (Bioorg Med Chem Lett, 2004)
